Results from patent publication US9738591B2, “Antimicrobial compounds” (priority 2009, dated 2017).
“And” between values parts separate entries of the source, which are not always exact repeats. Equal values may be shown once.

What was measured:
[1] = tested on: Staphylococcus aureus NCTC 6571/ATCC 9144; experiment: Disk diffusion; details: for zones of inhibition with S aureus NCTC6571: applied at 10 mg/ml; for Zone of Inhibition: S. aureus NCTC 6571; for Zone of inhibition, S. aureus NCTC 6571: analogues in DMSO, protocol of Example 3
[2] = tested on: Staphylococcus epidermidis ATCC 12228; experiment: Disk diffusion; details: S. epidermidis ATCC 1228
[3] = tested on: Staphylococcus xylosus ATCC 29971; experiment: Disk diffusion; details: S. xylosus ATCC 29971
[4] = tested on: A. calcoaceticus ATCC 15308; experiment: Disk diffusion
[5] = tested on: Streptococcus pneumoniae ATCC 49619; experiment: Disk diffusion; details: S. pneumoniae ATCC 49619
[6] = tested on: Shigella flexneri NCTC 8192; experiment: Disk diffusion; type: cell-based; details: S. flexneri NCTC 8192
Method: Plates were incubated at 35° C.

[7] = tested on: Escherichia coli NCTC 10538; experiment: Disk diffusion; details: E. coli NCTC 10538
[8] = tested on: Streptococcus pyogenes NCTC 8191; experiment: Disk diffusion; details: S. pyogenes NCTC 8191
[9] = tested on: Stenotrophomonas maltophilia ATCC 13637; experiment: Disk diffusion; details: S. maltophilia ATCC 13637
[10] = tested on: Enterococcus faecalis NCTC 775; experiment: Disk diffusion; details: E. faecalis NCTC 775
C. albicans ATCC 90028 = experiment: Disk diffusion
[11] = tested on: Citrobacter freundii NCTC 9750/ATCC 8090; experiment: Disk diffusion; details: C. freundii NCTC 9750
[12] = tested on: Staphylococcus aureus (methicillin resistant) NCTC 10442; experiment: Disk diffusion; details: S. aureus NCTC 10442
[13] = tested on: V. cholerae non-01 clinical; experiment: Disk diffusion
[14] = tested on: Micrococcus luteus ATCC 10240; experiment: Disk diffusion; details: M. luteus ATCC 10240
[15] = tested on: Salmonella enterica subsp. enterica serovar Typhimurium ATCC 13311; experiment: Disk diffusion; details: S. typhimurium ATCC 13311
E. coli NCTC 10418 = experiment: Disk diffusion; details: for Zone of Inhibition: E. coli NCTC 10418; for Zone of inhibition, E. coli NCTC 10418: analogues in DMSO, protocol of Example 3
K. pneumoniae NCTC 10896 = experiment: Disk diffusion
[16] = tested on: Pseudomonas aeruginosa NCTC 10662; experiment: Disk diffusion; details: P. aeruginosa NCTC 10662
[17] = tested on: Aeromonas hydrophila NCTC 8049/ATCC 7966; experiment: Disk diffusion; details: A. hydrophila NCTC 8049
[18] = tested on: Bacillus cereus ATCC 13061; experiment: Disk diffusion; details: B. cereus ATCC 13061
[19] = tested on: Listeria monocytogenes NCTC 7973; experiment: Disk diffusion; details: L. monocytogenes NCTC 7973
[20] = tested on: Proteus mirabilis NCTC 10975; experiment: Disk diffusion; details: P. mirabilis NCTC 10975
[21] = tested on: Moraxella catarrhalis NCTC 3625; experiment: Disk diffusion; details: M. catarrhalis NCTC 3625
[22] = tested on: Bacillus subtilis ATCC 6633; experiment: Disk diffusion; details: B. subtilis ATCC 6633
[23] = tested on: Yersinia enterocolitica clinical 26609; experiment: Disk diffusion; details: Y. enterocolitica clinical 26609
[24] = tested on: S. typhimurium TA98, TA100 and TA1535; experiment: Ames Test for mutagenic activity, no metabolic activation; details: 5 μg/plate, duplicate plates

## O=C(O)c1ccc(/C=C/c2ccc(/C=C/c3ccc(C(=O)O)cc3)cc2)cc1 [DSB001]
[1]
  zones of inhibition with S aureus NCTC6571: no zones of inhibition

## O=C(O)c1ccc(CCc2cccc(CCc3ccc(C(=O)O)cc3)c2)cc1 [DSB004]
[1]
  zones of inhibition with S aureus NCTC6571: no zones of inhibition

## O=C(O)c1ccc(CCc2ccc(CCc3ccc(C(=O)O)cc3)cc2)cc1 [DSD002]
[1]
  zones of inhibition with S aureus NCTC6571: no zones of inhibition

## O=C(O)c1ccc(/C=C/c2cc(/C=C/c3ccc(C(=O)O)cc3)c(/C=C/c3ccc(C(=O)O)cc3)cc2/C=C/c2ccc(C(=O)O)cc2)cc1 [QSB001]
[2]
  Zone of Inhibition: 0 mm
[3]
  Zone of Inhibition: 0 mm
[4]
  Zone of Inhibition: 0 mm
[5]
  Zone of Inhibition: 9 mm
[6]
  Zone of Inhibition: 0 mm
[7]
  Zone of Inhibition: 7.5 mm
[8]
  Zone of Inhibition: 8 mm
[9]
  Zone of Inhibition: 8 mm
[10]
  Zone of Inhibition: 0 mm
C. albicans ATCC 90028
  Zone of Inhibition: 0 mm
[11]
  Zone of Inhibition: 8.5 mm
[12]
  Zone of Inhibition: 0 mm
[13]
  Zone of Inhibition: 8 mm
[14]
  Zone of Inhibition: 0 mm
[15]
  Zone of Inhibition: 8.5 mm
E. coli NCTC 10418
  Zone of Inhibition: 7 mm
K. pneumoniae NCTC 10896
  Zone of Inhibition: 8 mm
[16]
  Zone of Inhibition: 0 mm
[17]
  Zone of Inhibition: 7 mm
[1]
  Zone of Inhibition: 8.5 mm
[18]
  Zone of Inhibition: 0 mm
[19]
  Zone of Inhibition: 0 mm
[20]
  Zone of Inhibition: 0 mm
[21]
  Zone of Inhibition: 18 mm
[22]
  Zone of Inhibition: 0 mm
[23]
  Zone of Inhibition: 7.5 mm

## O=C(O)c1ccc(CCc2cc(CCc3ccc(C(=O)O)cc3)c(CCc3ccc(C(=O)O)cc3)cc2CCc2ccc(C(=O)O)cc2)cc1 [QSB002]
[1]
  zones of inhibition with S aureus NCTC6571: no zones of inhibition

## O=C(O)/C=C/c1cc(/C=C/C(=O)O)cc(/C=C/C(=O)O)c1 [TAB001]
[1]
  Zone of inhibition, S. aureus NCTC 6571: 0 mm

## O=C(O)/C=C/c1ccc(-c2cc(-c3ccc(/C=C/C(=O)O)cc3)cc(-c3ccc(/C=C/C(=O)O)cc3)c2)cc1 [TCB001]
[1]
  Zone of inhibition, S. aureus NCTC 6571: 11 mm

## CCCCOC(=O)/C=C/c1ccc(-c2cc(-c3ccc(/C=C/C(=O)OCCCC)cc3)cc(-c3ccc(/C=C/C(=O)OCCCC)cc3)c2)cc1 [TCB003]
[1]
  Zone of inhibition, S. aureus NCTC 6571: 0 mm

## CCCCOC(=O)/C=C/c1ccc(-c2nc(-c3ccc(/C=C/C(=O)OCCCC)cc3)nc(-c3ccc(/C=C/C(=O)OCCCC)cc3)n2)cc1 [TCT003]
E. coli NCTC 10418
  Zone of inhibition, E. coli NCTC 10418: 0 mm
[1]
  Zone of inhibition, S. aureus NCTC 6571: 0 mm

## CN(C)c1ccc(/C=C/c2cc(/C=C/c3ccc(N(C)C)cc3)cc(/C=C/c3ccc(N(C)C)cc3)c2)cc1 [TSB009]
[1]
  Zone of inhibition, S. aureus NCTC 6571: 0 mm

## COc1ccc(/C=C/c2cc(/C=C/c3ccc(OC)cc3)cc(/C=C/c3ccc(OC)cc3)c2)cc1 [TSB019]
E. coli NCTC 10418
  Zone of inhibition, E. coli NCTC 10418: 0 mm
[1]
  Zone of inhibition, S. aureus NCTC 6571: 0 mm

## CC(=O)Oc1ccc(/C=C/c2cc(/C=C/c3ccc(OC(C)=O)cc3)cc(/C=C/c3ccc(OC(C)=O)cc3)c2)cc1 [TSB023]
E. coli NCTC 10418
  Zone of inhibition, E. coli NCTC 10418: 0 mm
[1]
  Zone of inhibition, S. aureus NCTC 6571: 0 mm

## CC(=O)c1ccc(/C=C/c2cc(/C=C/c3ccc(C(C)=O)cc3)cc(/C=C/c3ccc(C(C)=O)cc3)c2)cc1 [TSB025]
E. coli NCTC 10418
  Zone of inhibition, E. coli NCTC 10418: 0 mm
[1]
  Zone of inhibition, S. aureus NCTC 6571: 0 mm

## Cc1ccc(/C=C/c2cc(/C=C/c3ccc(C)cc3)cc(/C=C/c3ccc(C)cc3)c2)cc1 [TSB037]
E. coli NCTC 10418
  Zone of inhibition, E. coli NCTC 10418: 0 mm
[1]
  Zone of inhibition, S. aureus NCTC 6571: 0 mm

## CC(C)Oc1ccc(/C=C/c2cc(/C=C/c3ccc(OC(C)C)c(OC(C)C)c3)cc(/C=C/c3ccc(OC(C)C)c(OC(C)C)c3)c2)cc1OC(C)C [TSB041]
E. coli NCTC 10418
  Zone of inhibition, E. coli NCTC 10418: 0 mm
[1]
  Zone of inhibition, S. aureus NCTC 6571: 0 mm

## COc1cc(/C=C/c2cc(/C=C/c3cc(OC)c(OC)c(OC)c3)cc(/C=C/c3cc(OC)c(OC)c(OC)c3)c2)cc(OC)c1OC [TSB049]
E. coli NCTC 10418
  Zone of inhibition, E. coli NCTC 10418: 0 mm
[1]
  Zone of inhibition, S. aureus NCTC 6571: 0 mm

## C(=C\c1cc(/C=C/c2ccncc2)cc(/C=C/c2ccncc2)c1)/c1ccncc1 [TSB053]
[1]
  Zone of inhibition, S. aureus NCTC 6571: 0 mm

## N#Cc1ccc(/C=C/c2cc(/C=C/c3ccc(C#N)cc3)cc(/C=C/c3ccc(C#N)cc3)c2)cc1 [TSB063]
E. coli NCTC 10418
  Zone of inhibition, E. coli NCTC 10418: 0 mm
[1]
  Zone of inhibition, S. aureus NCTC 6571: 0 mm

## C(=C\c1cc(/C=C/c2ccc(-c3nnn[nH]3)cc2)cc(/C=C/c2ccc(-c3nnn[nH]3)cc2)c1)/c1ccc(-c2nnn[nH]2)cc1 [TSB065]
E. coli NCTC 10418
  Zone of inhibition, E. coli NCTC 10418: 0 mm
[1]
  Zone of inhibition, S. aureus NCTC 6571: 14 mm

## O=C(O)c1ccc(/C=C/c2ccc(/C=C/c3ccc(C(=O)O)cc3)c(/C=C/c3ccc(C(=O)O)cc3)c2)cc1 [TSB067]
[2]
  Zone of Inhibition: 11 mm
[3]
  Zone of Inhibition: 0 mm
[4]
  Zone of Inhibition: 0 mm
[5]
  Zone of Inhibition: 16 mm
[6]
  Zone of Inhibition: 0 mm
[7]
  Zone of Inhibition: 7.5 mm
[8]
  Zone of Inhibition: 14 mm
[9]
  Zone of Inhibition: 0 mm
[10]
  Zone of Inhibition: 0 mm
C. albicans ATCC 90028
  Zone of Inhibition: 0 mm
[11]
  Zone of Inhibition: 0 mm
[12]
  Zone of Inhibition: 12 mm
[13]
  Zone of Inhibition: 0 mm
[14]
  Zone of Inhibition: 20 mm
[15]
  Zone of Inhibition: 0 mm
E. coli NCTC 10418
  Zone of Inhibition: 6.5 mm
K. pneumoniae NCTC 10896
  Zone of Inhibition: 0 mm
[16]
  Zone of Inhibition: 0 mm
[17]
  Zone of Inhibition: 7 mm
[1]
  Zone of Inhibition: 14 mm
[18]
  Zone of Inhibition: 0 mm
[19]
  Zone of Inhibition: 12 mm
[20]
  Zone of Inhibition: 0 mm
[21]
  Zone of Inhibition: 32 mm
[22]
  Zone of Inhibition: 0 mm
[23]
  Zone of Inhibition: 0 mm

## O=C(O)c1ccc(CCc2ccc(CCc3ccc(C(=O)O)cc3)c(CCc3ccc(C(=O)O)cc3)c2)cc1 [TSB068]
[2]
  Zone of Inhibition: 0 mm
[3]
  Zone of Inhibition: 0 mm
[4]
  Zone of Inhibition: 0 mm
[5]
  Zone of Inhibition: 23 mm
[6]
  Zone of Inhibition: 0 mm
[7]
  Zone of Inhibition: 0 mm
[8]
  Zone of Inhibition: 20 mm
[9]
  Zone of Inhibition: 0 mm
[10]
  Zone of Inhibition: 0 mm
C. albicans ATCC 90028
  Zone of Inhibition: 0 mm
[11]
  Zone of Inhibition: 0 mm
[12]
  Zone of Inhibition: 0 mm
[13]
  Zone of Inhibition: 0 mm
[14]
  Zone of Inhibition: 8 mm
[15]
  Zone of Inhibition: 0 mm
E. coli NCTC 10418
  Zone of Inhibition: 0 mm
K. pneumoniae NCTC 10896
  Zone of Inhibition: 0 mm
[16]
  Zone of Inhibition: 0 mm
[17]
  Zone of Inhibition: 7 mm
[1]
  Zone of Inhibition: 8 mm
[18]
  Zone of Inhibition: 0 mm
[19]
  Zone of Inhibition: 15 mm
[20]
  Zone of Inhibition: 0 mm
[21]
  Zone of Inhibition: 32 mm
[22]
  Zone of Inhibition: 0 mm
[23]
  Zone of Inhibition: 0 mm

## [N-]=[N+]=[N-] [sodium azide, reference compound]
[24]; TA100, negative control 113, 96
  Number of colonies, Positive Control: 350 and 360
[24]; TA1535, negative control 28, 29
  Number of colonies, Positive Control: 600
